Results: patent US20110040086A1, “Novel Beta-Lactam Antibiotics, Methods for Their Production, and Their Use” (DRITTE PATENTPORTFOLIO BETEILIGUNGSGESELLSCHAFT MB, priority 2007, published 2011)

How the values were obtained:
[1] = system: Bacillus megaterium SBUG 1152; experiment: agar diffusion test (Test System 1, antimicrobial effect); format: cell-based
Description: (§1) Test System 1 (Antimicrobial Effect)
(§2) The test germs Escherichia coli SBUG 1135 and Bacillus megaterium SBUG 1152 are drawn overnight (17 hours at 37° C.) in 5 ml nutrient medium II. The incubation is performed in a shaking incubator (INFORS AG CH 4103, Bottmingen, Switzerland) at a shaking frequency of 180 rpm.
(§3) After 17 h incubation time, Escherichia coli has reached a cell density of ca. 2.4×10^10 cells/ml and Bacillus megaterium a cell density of ca. 2.1×10^8 cells/ml.
(§4) The seeding of bacteria in agar is selected so that, dense, but not confluent individual colonies develop after the incubation.
Bacillus megaterium: 0.1 ml of non-diluted overnight culture (ÜN) in 10 ml nutrient agar corresponds to a cell count of 10^6.
(§5) The inoculated nutrient agar is set in sterile Petri dishes and left standing for a few minutes for drying.
(§6) The test substances are deposited in stepped quantities (10 μg, 50 μg, 100 μg) onto active ingredient carriers (sensi-discs). For this purpose, the test substances are dissolved in methanol or A. dest. according to their solubility. Each inoculated plate is fitted with 3 test sheets.
(§7) After a 20-hour incubation time at 37° C., the zones of inhibition around the individual test sheets could be measured. The diameter of the zone of inhibition is specified in mm.

[2] = system: B. subtilis AWD 166; experiment: agar diffusion test (antimicrobial effect); format: cell-based, Bacillus subtilis
Description: as §4, §5, §6, §7

[3] = system: Escherichia coli SBUG 1135; experiment: agar diffusion test (Test System 1, antimicrobial effect); format: cell-based; parameters: key: r = resistant (no detectable zone of inhibition)
Description: as §1, §2, §3, §4
Escherichia coli: the ÜN is diluted 1:100 with physiological saline solution, of which 0.1 ml is converted into 10 ml nutrient agar. That corresponds to a cell count of 10^6.
as §5, §6, §7

[4] = system: Enterococcus faecalis 769; experiment: agar diffusion test (Test System II, multi-resistant germs); format: cell-based; parameters: key: r = resistant (no detectable zone of inhibition)
Description: as §6
(§8) Test System II (Effect Against Multi-Resistant Germs)
(§9) For this purpose, bacteria is cultivated on Müller-Hinton-Agar II plates.
(§10) With 1-1.5 ml physiological saline solution, a bacteria suspension of McFarland 0.5 (corresponds to a bacteria density of 150×10^6 germs) is produced. Then, with a sterile glass rod, a small drop of bacteria suspension is placed on the Müller-Hinton-Agar plate and coated in three layers (vertical, horizontal, and transverse). Thereafter, the sensi-discs with the novel semi-synthetic test substances are placed on top. The fitted plates are incubated for 18-20 hours at 37° C. After incubation, the diameters of the zones of inhibition are read as a measure for the antimicrobial activity of the novel semi-synthetic test substances.

[5] = system: Staphylococcus aureus 315; experiment: as above; format: cell-based; parameters: key: r = resistant (no detectable zone of inhibition)
Description: as §6, §8, §9, §10

[6] = system: E. faecalis 945; experiment: as above; format: cell-based, Enterococcus faecalis; parameters: key: r = resistant (no detectable zone of inhibition)
Description: as §6, §8, §9, §10

[7] = system: S. aureus 33490; experiment: as above; format: cell-based, Staphylococcus aureus; parameters: key: r = resistant (no detectable zone of inhibition)
Description: as §6, §8, §9, §10

[8] = system: S. aureus 34289; experiment: as above; format: cell-based, Staphylococcus aureus; parameters: key: r = resistant (no detectable zone of inhibition)
Description: as §6, §8, §9, §10

[9] = system: S. aureus 36881; experiment: as above; format: cell-based, Staphylococcus aureus; parameters: key: r = resistant (no detectable zone of inhibition)
Description: as §6, §8, §9, §10

[10] = system: S. aureus 39105; experiment: as above; format: cell-based, Staphylococcus aureus; parameters: key: r = resistant (no detectable zone of inhibition)
Description: as §6, §8, §9, §10

[11] = system: S. aureus 520; experiment: as above; format: cell-based, Staphylococcus aureus; parameters: key: r = resistant (no detectable zone of inhibition)
Description: as §6, §8, §9, §10

[12] = system: S. aureus 526; experiment: as above; format: cell-based, Staphylococcus aureus; parameters: key: r = resistant (no detectable zone of inhibition)
Description: as §6, §8, §9, §10

[13] = system: S. aureus North Germany strain; experiment: as above; format: cell-based, Staphylococcus aureus; parameters: key: r = resistant (no detectable zone of inhibition)
Description: as §6, §8, §9, §10

[14] = system: S. aureus 38418; experiment: as above; format: cell-based, Staphylococcus aureus
Description: as §6, §8, §9, §10

[15] = system: S. aureus ATCC 6538; experiment: as above; format: cell-based, Staphylococcus aureus
Description: as §6, §8, §9, §10

[16] = system: S. epidermidis 1068; experiment: as above; format: cell-based, Staphylococcus epidermidis; parameters: key: r = resistant (no detectable zone of inhibition)
Description: as §6, §8, §9, §10

[17] = system: S. epidermidis 1071; experiment: as above; format: cell-based, Staphylococcus epidermidis; parameters: key: r = resistant (no detectable zone of inhibition)
Description: as §6, §8, §9, §10

[18] = system: S. epidermidis 563; experiment: as above; format: cell-based, Staphylococcus epidermidis; parameters: key: r = resistant (no detectable zone of inhibition)
Description: as §6, §8, §9, §10

[19] = system: S. epidermidis 847; experiment: as above; format: cell-based, Staphylococcus epidermidis; parameters: key: r = resistant (no detectable zone of inhibition)
Description: as §6, §8, §9, §10

[20] = system: S. epidermidis 125; experiment: as above; format: cell-based, Staphylococcus epidermidis
Description: as §6, §8, §9, §10

COC(=O)C1=C(NC(C(=O)NC2C(=O)N3C(C(=O)O)=C(C)CSC23)c2ccccc2)C(=O)C=CC1=O (stereo not drawn) [1g, 7-[2-(2-methoxycarbonyl-3,6-dioxocyclohexa-1,4-dienylamino)-2-phenyl-acetylamino]-desacetoxycephalosporanic acid]
Diameter of zone of inhibition ([1]; Quantity n 0.029): 20 mm
Diameter of zone of inhibition ([1]; Quantity n 0.14): 30 mm
Diameter of zone of inhibition ([1]; Quantity n 0.29): 34 mm
Diameter of zone of inhibition ([2]; Quantity n 0.029): 24 mm
Diameter of zone of inhibition ([2]; Quantity n 0.14): 30 mm
Diameter of zone of inhibition ([2]; Quantity n 0.29): 32 mm
Diameter of zone of inhibition ([3]; Quantity n 0.029): r
Diameter of zone of inhibition ([3]; Quantity n 0.14): 16 mm
Diameter of zone of inhibition ([3]; Quantity n 0.29): 22 mm
Diameter of zone of inhibition ([4]; Quantity n 0.029): r
Diameter of zone of inhibition ([4]; Quantity n 0.14): r
Diameter of zone of inhibition ([4]; Quantity n 0.29): r
Diameter of zone of inhibition ([5]; Quantity n 0.029): r
Diameter of zone of inhibition ([5]; Quantity n 0.14): r
Diameter of zone of inhibition ([5]; Quantity n 0.29): 12 mm
Diameter of zone of inhibition ([6]; Quantity n 0.029): r
Diameter of zone of inhibition ([6]; Quantity n 0.14): r
Diameter of zone of inhibition ([6]; Quantity n 0.29): r
Diameter of zone of inhibition ([7]; Quantity n [μmol] 0.029): r
Diameter of zone of inhibition ([7]; Quantity n [μmol] 0.14): 20 mm
Diameter of zone of inhibition ([7]; Quantity n [μmol] 0.29): 24 mm
Diameter of zone of inhibition ([8]; Quantity n [mol] 0.029): r
Diameter of zone of inhibition ([8]; Quantity n [mol] 0.14): r
Diameter of zone of inhibition ([8]; Quantity n [mol] 0.29): r
Diameter of zone of inhibition ([9]; Quantity n 0.029): r
Diameter of zone of inhibition ([9]; Quantity n 0.14): r
Diameter of zone of inhibition ([9]; Quantity n 0.29): 12 mm
Diameter of zone of inhibition ([10]; Quantity n 0.029): r
Diameter of zone of inhibition ([10]; Quantity n 0.14): 10 mm
Diameter of zone of inhibition ([10]; Quantity n 0.29): 18 mm
Diameter of zone of inhibition ([11]; Quantity n [mol] 0.029): r
Diameter of zone of inhibition ([11]; Quantity n [mol] 0.14): r
Diameter of zone of inhibition ([11]; Quantity n [mol] 0.29): r
Diameter of zone of inhibition ([12]; Quantity n 0.029): r
Diameter of zone of inhibition ([12]; Quantity n 0.14): r
Diameter of zone of inhibition ([12]; Quantity n 0.29): r
Diameter of zone of inhibition ([13]; Quantity n 0.029): r
Diameter of zone of inhibition ([13]; Quantity n 0.14): 10 mm
Diameter of zone of inhibition ([13]; Quantity n 0.29): 14 mm
Diameter of zone of inhibition ([14]; Quantity n [mol] 0.029): 16 mm
Diameter of zone of inhibition ([14]; Quantity n [mol] 0.14): 26 mm
Diameter of zone of inhibition ([14]; Quantity n [mol] 0.29): 30 mm
Diameter of zone of inhibition ([15]; Quantity n 0.029): 20 mm
Diameter of zone of inhibition ([15]; Quantity n 0.14): 28 mm
Diameter of zone of inhibition ([15]; Quantity n 0.29): 32 mm
Diameter of zone of inhibition ([16]; Quantity n 0.029): r
Diameter of zone of inhibition ([16]; Quantity n 0.14): 14 mm
Diameter of zone of inhibition ([16]; Quantity n 0.29): 18 mm
Diameter of zone of inhibition ([17]; Quantity n 0.029): r
Diameter of zone of inhibition ([17]; Quantity n 0.14): 18 mm
Diameter of zone of inhibition ([17]; Quantity n 0.29): 22 mm
Diameter of zone of inhibition ([18]; Quantity n 0.029): r
Diameter of zone of inhibition ([18]; Quantity n 0.14): 8 mm
Diameter of zone of inhibition ([18]; Quantity n 0.29): 14 mm
Diameter of zone of inhibition ([19]; Quantity n [mol] 0.029): r
Diameter of zone of inhibition ([19]; Quantity n [mol] 0.14): 14 mm
Diameter of zone of inhibition ([19]; Quantity n [mol] 0.29): 18 mm
Diameter of zone of inhibition ([20]; Quantity n 0.029): 14 mm
Diameter of zone of inhibition ([20]; Quantity n 0.14): 24 mm
Diameter of zone of inhibition ([20]; Quantity n 0.29): 28 mm
